Experimental data from article PMC10604444, “Extra-Synaptic GABAA Receptor Potentiation and Neurosteroid-Induced Learning Deficits Are Inhibited by GR3027, a GABAA Modulating Steroid Antagonist” (Biomolecules, 2023).

Tested on: male Wistar rats
Experiment: AP-induced loss of righting reflex (LoR)
Assay type: in vivo, rat
Description: Nanomolar concentrations of AP injected intravenously dramatically potentiate the GABA response at the GABAA receptor [1, 20]. […] Under normal circumstances, the righting reflex immediately corrects the orientation of the body when it is outside of its normal upright position, such as that of a rat that is placed on its side. When the rat is awake, it immediately turns around to be standing on its paws when dropped from a low distance above a surface. This ability can be lost with the injection of AP. Twelve male Wistar rats, with a weight of 267–307 g at the test occasion, were included in the study (Taconics, Denmark). The rats were housed at three animals per cage, with a normal day/night light cycle and ad libitum access to food and water (except during the short experiment, approximately 10 min). The week before the study, the animals were handled daily, to avoid stress during the experimental session. The handling included activities used during the test, i.e., holding, tail warming in water, and wrapping in op-blankets. AP (Umecrine AB) and GR3027 (Umecrine Cognition AB) were dissolved at a concentration of 2 mg/mL in 10% 2-hydroxypropyl-β-cyclodextrin (Sigma), respectively, by sonication. To measure the antagonism of AP-induced LoR, GR3027 was mixed with the AP solution at different ratios of AP to GR3027 1: 2.5–1:7.5. […]

Compound: C#C[C@]1(O)CC[C@@]2(C)[C@@H](CC[C@@H]3[C@@H]2CC[C@]2(C)/C(=N/O)CC[C@@H]32)C1 [GR3027, 3α-ethynyl-3β-hydroxyl-5α-androstan-17-oxime]
- Dosage of GR3027 that antagonizes AP-induced loss of righting reflex (AP 2 mg/kg i.v., in 10% 2-hydroxypropyl-β-cyclodextrin): 15 mg/kg
- Effect on general condition of the rat (GR3027 15 mg/kg): did not affect the general condition
